The structures appear in SMILES notation. Read-outs that look alike come from different tables or passages of the source.

For one experiment, the target named is T1, C-CBL (46-435) (Homo sapiens, UniProt P22681).
T1 construct: N-terminal biotinylated WT CBL-B (36-427) and C-CBL (46-435) were captured on a streptavidin (SA) coated sensor chip
T1 sequence (P22681 46-435): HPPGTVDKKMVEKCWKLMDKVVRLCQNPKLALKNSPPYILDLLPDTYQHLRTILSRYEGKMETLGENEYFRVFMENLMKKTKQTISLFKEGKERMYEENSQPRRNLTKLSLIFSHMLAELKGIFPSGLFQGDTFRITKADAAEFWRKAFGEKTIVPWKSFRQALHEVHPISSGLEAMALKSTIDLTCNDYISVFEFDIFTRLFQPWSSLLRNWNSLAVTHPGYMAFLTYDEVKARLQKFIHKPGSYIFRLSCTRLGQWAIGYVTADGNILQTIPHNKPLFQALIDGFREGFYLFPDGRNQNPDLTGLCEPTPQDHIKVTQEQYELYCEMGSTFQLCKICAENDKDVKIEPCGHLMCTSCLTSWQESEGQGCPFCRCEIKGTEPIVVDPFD
Description: Surface Plasmon Resonance (SPR) assay, binding affinity and kinetics, C-CBL. Particulars: SPR at 10° C., biotinylated C-CBL (46-435) on streptavidin chip; geometric mean; read-out: C-CBL SPR Kd (nM) GMean. The gist of the method:
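SPR kinetics at 10° C, run either single-cycle (0.001–1 μM, 3-fold, 6 points, 120 s on, >5400 s off) or multi-cycle (10 points, 2-fold, top 10 or 100 μM, 90 s on). Proteins were N-biotinylated CBL-B (36-427) and C-CBL (46-435) on SA surfaces, in pH 7.2 HEPES, 2% DMSO.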

A further experiment concerns the target T2, CBL-B (Homo sapiens, UniProt Q13191).
T2 construct: endogenous in cells; host or cells: Jurkat HiBit-IL2 reporter cells, C-CBL knocked out by CRISPR
Description: Jurkat HiBit-IL2 assay (c-CBL KO), reporter cell line expressing CBL-B only. Particulars: geometric mean, read-out: C-CBL KO EC50 (nM) GMean. The experiment is classed as cell-based. The gist of the method: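 IL-2 secretion was measured by HiBiT luminescence after 1 h compound exposure (0.1% DMSO) and 4 h TCR/CD28 stimulation (final anti-CD3 1 μg/ml, anti-CD28 2 μg/ml, 37 °C) of Jurkat reporters lacking c-CBL or CBL-B. EC50 came from fold-of-effect versus stimulated-only cells, as geometric means across tests.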
A general note: The HiBiT peptide binds its large partner to form an active luciferase.

Setting [1] is: C-CBL KO (expressing CBL-B only), Table 16b (further repetition).
The mark [2] stands for this setting: c-CBL KO (CBL-B only), anti-CD3/anti-CD28 stimulation 4 hours, Table 16a.

T2 sequence (Q13191 whole entry): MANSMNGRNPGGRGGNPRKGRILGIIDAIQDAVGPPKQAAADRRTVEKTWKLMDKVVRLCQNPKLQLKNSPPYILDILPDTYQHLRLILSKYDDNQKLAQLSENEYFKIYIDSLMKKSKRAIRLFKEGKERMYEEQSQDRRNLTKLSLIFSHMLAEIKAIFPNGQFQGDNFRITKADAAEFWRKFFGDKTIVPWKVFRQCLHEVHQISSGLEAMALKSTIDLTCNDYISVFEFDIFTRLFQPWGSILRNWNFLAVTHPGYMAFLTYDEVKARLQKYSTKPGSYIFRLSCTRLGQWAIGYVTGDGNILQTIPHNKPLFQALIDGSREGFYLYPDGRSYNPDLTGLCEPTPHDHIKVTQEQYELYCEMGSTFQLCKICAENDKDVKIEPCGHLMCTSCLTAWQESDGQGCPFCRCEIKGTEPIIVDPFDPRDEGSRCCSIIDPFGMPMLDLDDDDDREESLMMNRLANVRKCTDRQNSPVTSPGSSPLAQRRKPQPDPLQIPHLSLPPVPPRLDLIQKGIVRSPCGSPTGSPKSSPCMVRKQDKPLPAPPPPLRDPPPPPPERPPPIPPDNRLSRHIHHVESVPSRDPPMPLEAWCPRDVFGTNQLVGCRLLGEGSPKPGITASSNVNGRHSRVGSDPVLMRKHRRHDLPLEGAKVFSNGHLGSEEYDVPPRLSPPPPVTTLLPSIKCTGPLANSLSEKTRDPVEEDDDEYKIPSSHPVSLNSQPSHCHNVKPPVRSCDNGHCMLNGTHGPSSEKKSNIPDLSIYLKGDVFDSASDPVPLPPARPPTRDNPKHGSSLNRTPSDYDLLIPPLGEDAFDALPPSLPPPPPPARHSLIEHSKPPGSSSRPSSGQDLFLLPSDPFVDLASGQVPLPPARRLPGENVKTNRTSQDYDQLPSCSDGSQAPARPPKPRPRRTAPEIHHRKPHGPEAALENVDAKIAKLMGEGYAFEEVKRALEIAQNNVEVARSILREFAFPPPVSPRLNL

By Kd is commonly meant the equilibrium constant for the complex coming apart. Broadly, the EC50 is the midpoint of the concentration-response curve. In the case of `Cn1cnnc1[C@@H](c1cccc(-c2n[nH]c3c(CN[C@@H]4CCC[C@@H]4O)nc(C(F)(F)F)cc23)c1)C1CCC1` [Example C1, (1S,2R)-2-({[3-{3-[(R)-cyclobutyl(4-methyl-4H-1,2,4-triazol-3-yl)methyl]phenyl}-5-(trifluoromethyl)-1H-pyrazolo[3,4-c]pyridin-7-yl]methyl}amino)cyclopentan-1-ol], the Kd at C-CBL (46-435) turned out to be 7.6 nM. Also, the EC50 on CBL-B (setting [1]) stood at 116 nM; on CBL-B (setting [2]), 25 nM.

For the molecule `Cn1cnnc1[C@@H](c1cccc(-c2n[nH]c3c(CN[C@H]4CCC[C@@H]4O)nc(C(F)(F)F)cc23)c1)C1CCC1` [Example C4, (1S,2S)-2-({[3-{3-[(R)-cyclobutyl(4-methyl-4H-1,2,4-triazol-3-yl)methyl]phenyl}-5-(trifluoromethyl)-1H-pyrazolo[3,4-c]pyridin-7-yl]methyl}amino)cyclopentan-1-ol], the Kd at C-CBL (46-435) was 49.9 nM. Further, the EC50 at CBL-B (setting [2]) worked out at 114 nM.

In the case of `C[C@H]1CN(Cc2nc(C(F)(F)F)cc3c(-c4cccc([C@H](c5nncn5C)C5CCC5)c4)n[nH]c23)CCO1` [Example C6, 3-{3-[(R)-cyclobutyl(4-methyl-4H-1,2,4-triazol-3-yl)methyl]phenyl}-7-{[(2S)-2-methylmorpholin-4-yl]methyl}-5-(trifluoromethyl)-1H-pyrazolo[3,4-c]pyridine], the Kd on C-CBL (46-435) stood at 102 nM. For the same molecule, at CBL-B (setting [2]), the EC50 is 115 nM.

Regarding `C[C@H]1CCCN(Cc2nc(C(F)(F)F)cc3c(-c4cccc([C@H](c5nncn5C)C5CCC5)c4)n[nH]c23)C1` [Example C7, 3-{3-[(R)-cyclobutyl(4-methyl-4H-1,2,4-triazol-3-yl)methyl]phenyl}-7-{[(3S)-3-methylpiperidin-1-yl]methyl}-5-(trifluoromethyl)-1H-pyrazolo[3,4-c]pyridine], the Kd at C-CBL (46-435) worked out at 47.7 nM. For the same molecule, the EC50 at CBL-B (setting [2]) turned out to be 58 nM.

In the case of `C[C@H](N[C@H]1CCC(F)(F)C1)c1nc(C(F)(F)F)cc2c(-c3cccc([C@H](c4nncn4C)C4CCC4)c3)n[nH]c12` [Example C8], the Kd at C-CBL (46-435) was found to be 5 nM. Moreover, the EC50 at CBL-B (setting [2]) was determined as 6 nM.

Turning to `C[C@@H](N[C@H]1CCC(F)(F)C1)c1nc(C(F)(F)F)cc2c(-c3cccc([C@H](c4nncn4C)C4CCC4)c3)n[nH]c12` [Example C9], the Kd on C-CBL (46-435) amounted to 22.1 nM. In addition, the EC50 at CBL-B (setting [1]) and at CBL-B (setting [2]) was 32 nM throughout.

Turning to `CC(NC1CCCC1)c1nc(C(F)(F)F)cc2c(-c3cccc([C@H](c4nncn4C)C4CCC4)c3)n[nH]c12` (stereo partly drawn) [Example C14, N-{(1ξ)-1-[3-{3-[(R)-cyclobutyl(4-methyl-4H-1,2,4-triazol-3-yl)methyl]phenyl}-5-(trifluoromethyl)-1H-pyrazolo[3,4-c]cyclopen-7-yl]ethyl}cyclopentanamine], the Kd at C-CBL (46-435) stood at 4.1 nM. The EC50 at CBL-B (setting [1]) stood at 5 nM; at CBL-B (setting [2]) it was 4 nM.

Regarding `C[C@@H](NC1CCC1)c1nc(C(F)(F)F)cc2c(-c3cccc(C4(Cc5nncn5C)COC4)c3)n[nH]c12` [Example C16], the Kd on C-CBL (46-435) came out at 83.4 nM. For the same molecule, the EC50 on CBL-B (setting [2]) was 75 nM.

On to `C[C@@H]1CCCN(Cc2nc(C(F)(F)F)cc3c(-c4cccc(C5(Cc6nncn6C)COC5)c4)n[nH]c23)C1` [Example C29, 7-{[(3R)-3-methylpiperidin-1-yl]methyl}-3-(3-{3-[(4-methyl-4H-1,2,4-triazol-3-yl)methyl]oxetan-3-yl}phenyl)-5-(trifluoromethyl)-1H-pyrazolo[3,4-c]pyridine], for which the Kd at C-CBL (46-435) came out at 195 nM. Moreover, the half-maximal effective concentration (EC50) on CBL-B (setting [2]) turned out to be 204 nM.

Consider `C[C@H]1CCCN(Cc2nc(C(F)(F)F)cc3c(-c4cccc(C5(Cc6nncn6C)COC5)c4)n[nH]c23)C1` [Example C30, 7-{[(3S)-3-methylpiperidin-1-yl]methyl}-3-(3-{3-[(4-methyl-4H-1,2,4-triazol-3-yl)methyl]oxetan-3-yl}phenyl)-5-(trifluoromethyl)-1H-pyrazolo[3,4-c]pyridine], for which, at C-CBL (46-435), the Kd was 35.9 nM. At CBL-B (setting [2]), the 50% effective concentration (EC50) turned out to be 32 nM.

With `Cn1cnnc1CC1(c2cccc(-c3n[nH]c4c(CN5CCCCC5)nc(C(F)(F)F)cc34)c2)COC1` [Example C33, 3-(3-{3-[(4-methyl-4H-1,2,4-triazol-3-yl)methyl]oxetan-3-yl}phenyl)-7-[(piperidin-1-yl)methyl]-5-(trifluoromethyl)-1H-pyrazolo[3,4-c]pyridine], at C-CBL (46-435), the Kd was 107 nM. Moreover, the EC50 at CBL-B (setting [2]) was determined as 116 nM.

Regarding `Cn1cnnc1CC1(c2cccc(-c3n[nH]c4c(CN[C@H]5CCC(F)(F)C5)nc(C(F)(F)F)cc34)c2)COC1` [Example C38, (1S)-3,3-difluoro-N-{[3-(3-{3-[(4-methyl-4H-1,2,4-triazol-3-yl)methyl]oxetan-3-yl}phenyl)-5-(trifluoromethyl)-1H-pyrazolo[3,4-c]pyridin-7-yl]methyl}cyclopentan-1-amine], the Kd on C-CBL (46-435) was found to be 70.5 nM. Besides, the EC50 at CBL-B (setting [2]) is 71 nM.

For the molecule `Cn1cnnc1[C@@H](c1cccc(-c2n[nH]c3c(CN[C@H]4CCOC4)nc(C(F)(F)F)cc23)c1)C1CCC1` [Example D1, (3S)—N-{[3-{3-[(R)-cyclobutyl(4-methyl-4H-1,2,4-triazol-3-yl)methyl]phenyl}-5-(trifluoromethyl)-1H-pyrazolo[3,4-c]pyridin-7-yl]methyl}oxolan-3-amine], on C-CBL (46-435), the equilibrium dissociation constant (Kd) turned out to be 208 nM. Besides, the EC50 on CBL-B (setting [2]) worked out at 276 nM.

Consider `Cn1cnnc1[C@@H](c1cccc(-c2n[nH]c3c(CNC4CCCC4)nc(C(F)(F)F)cc23)c1)C1CCC1` [Example D4], for which, on C-CBL (46-435), the Kd came out at 106 nM. For the same molecule, the EC50 at CBL-B (setting [2]) is 72 nM.

Regarding `C[C@H](NC1CCC1)c1nc(C(F)(F)F)cc2c(-c3cccc(C4(Cc5nncn5C)COC4)c3)n[nH]c12` [Example F1, N-{(1S)-1-[3-(3-{3-[(4-methyl-4H-1,2,4-triazol-3-yl)methyl]oxetan-3-yl}phenyl)-5-(trifluoromethyl)-1H-pyrazolo[3,4-c]pyridin-7-yl]ethyl}cyclobutanamine], the Kd on C-CBL (46-435) came to 11.2 nM. The EC50 on CBL-B (setting [1]) turned out to be 15 nM; on CBL-B (setting [2]), 8 nM.

With `C[C@H](N)c1nc(C(F)(F)F)cc2c(-c3cccc([C@H](c4nncn4C)C4CCC4)c3)n[nH]c12` [Example K12, (1S)-1-[3-{3-[(R)-cyclobutyl(4-methyl-4H-1,2,4-triazol-3-yl)methyl]phenyl}-5-(trifluoromethyl)-1H-pyrazolo[3,4-c]pyridin-7-yl]ethan-1-amine], the Kd on C-CBL (46-435) stood at 209 nM. The EC50 at CBL-B (setting [1]) was 895 nM.

Values taken from patent US20260125375A1 (Pfizer Inc., priority 2022, published 2026).
